Data taken from article PMC5596338 (Journal of Bone and Mineral Research, 2017).

What was measured:
[1] = Mineral binding affinity: elution from hydroxyapatite (HAP) columns by FPLC; format: physicochemical; conditions: HAP column, mean ± SE
[2] = test system: bone resorption (metaphyseal BMD); test: Growing rat model adapted from the Schenk assay: BMD of proximal tibial metaphysis by DXA; format: in vivo; conditions: growing male Sprague Dawley rats, s.c. daily for 7 days
Procedure: The antiresorptive potency of OX14 was measured by its effect on increasing BMD compared to ALN, ZOL, RIS, and MIN in a growing rat model adapted from the Schenk assay.26, 27 These studies were performed at the Procter & Gamble Health Sciences Center, Mason, OH, USA from 2007 to 2010, as part of the program of screening new bisphosphonates. Male Sprague Dawley rats (6 weeks old, weighing 120 to 150 g) were randomized into groups (n = 6) based on body weight. All groups received treatment by subcutaneous (s.c.) injection at the same time daily for 7 days. The first treatment was on day 0, and the last treatment on day 6, with animals euthanized by cervical dislocation on day 7. BMD of the proximal metaphysis of the right tibia was analyzed using dual‐energy X‐ray analysis (DXA) using a Hologic QDR‐4500 densitometer (Hologic, Inc., Waltham, MA, USA). Efficacy of each bisphosphonate was expressed as percentage change from the vehicle control group. The dose that increased BMD 20% greater than the control was determined via a logistic dose‐response relationship (SAS Institute, Inc., Cary, NC, USA), which estimates an efficacy value using animals in the study, and for comparison of bisphosphonates across studies. Data from compounds run in multiple studies was averaged.

[3] = Short-term (24-hour) skeletal retention based on urinary excretion after i.v. dosing; format: in vivo, Sprague Dawley rats; conditions: for Percentage of the dose excreted in urine over 24 hours / Skeletal retention (% of administered dose): rats, i.v.; for Percentage of the dose excreted in urine over 24 hours: 0 to 24 hours, mean ± standard deviation, averaged from all studies; for Skeletal retention (% of administered dose): calculated as dose administered minus urinary excretion over 24 hours
[4] = test system: bone (BV/TV, osteoclasts, osteoblasts); test: In vivo OX14 dose response study in non-tumor-bearing mice (µCT and histomorphometry of tibias); parameters: species or system C57BL/6J mice
Procedure: Tibias were then assessed by μCT and histological analyzes as described below (see Assessment of bone integrity). […] Bruker) and analyzed using CTAn (v. 1.12; Bruker). The number and area of cortical bone lesions (pixels^2) were assessed by taking the μCT datasets, removing the trabecular bone and then volume-rendering the datasets to create 3D models using […] (version 1.0; ANUVizlab, Canberra, Australia), followed by analysis of three different sides of the bone using ImageJ software (version 1.47; NIH, Bethesda, MD, USA; https://imagej.nih.gov/ij/). After decalcification, wax embedding, and sectioning of the tibias, the numbers of osteoclasts (following tartrate-resistant acid phosphatase [TRAP] staining) were assessed using OsteoMeasure Advanced Bone Histomorphometry Video System (Osteometrics, Inc., Decatur, GA, USA) and standard histomorphometric methods.28

[5] = test system: JJN3 myeloma cells in NSG mice; test: JJN3-NSG murine model of myeloma-induced bone disease; format: in vivo; conditions: for Osteoclast number (cortico-endosteal surface) / Cortical bone lesions by μCT / Osteolytic disease by μCT / Tumor burden by flow cytometric analysis of femoral bone marrow flushes / BV/TV by μCT: ZOL 28.4, OX14 23 µg P/kg s.c. 2×/week; for Osteoclast number (cortico-endosteal surface): tumor mice; for Cortical bone lesions by μCT / Osteolytic disease by μCT / BV/TV by μCT: vs tumor control; for BV/TV by μCT: tumor-bearing mice
Procedure: Female NSG mice (7 to 8 weeks old, weighing 19 to 23 g) were randomized based on weight into four groups (n = 8/group). Group 1 was a non–tumor‐bearing control group (naive). Groups 2 to 4 were injected via the tail vein with 1 × 10^6 JJN3 cells and then treated twice a week s.c. from the time of tumor cell injection for the duration of the study with vehicle control (PBS, group 2), ZOL (28.4 µg P/kg, group 3), or OX14 (23 µg P/kg, group 4). At the first signs of morbidity (after 3 weeks) all animals were anesthetized ([…] and 2% oxygen by inhalation) for cardiac bleeding and euthanized by cervical dislocation. Bone disease and tumor burden were assessed as described below (see Analysis of tumour burden).
At euthanasia, the right tibias were dissected free of soft tissue and fixed in 10% formalin before µCT analysis was used to measure the percentage of BV/TV. Tibias were scanned on a Skyscan 1272 (Bruker, Kontich, Belgium) at 4.3 μm with a 0.7‐degree rotation step, reconstructed using NRecon (v. 1.6.9.4; Bruker) and analyzed using CTAn (v. 1.12; Bruker). The number and area of cortical bone lesions (pixels^2) were assessed by taking the µCT datasets, removing the trabecular bone and then volume‐rendering the datasets to create 3D models using Drishti (version 1.0; ANUVizlab, Canberra, Australia), followed by analysis of three different sides of the bone using ImageJ software (version 1.47; NIH, Bethesda, MD, USA; https://imagej.nih.gov/ij/). After decalcification, wax embedding, and sectioning of the tibias, the numbers of osteoclasts (following tartrate‐resistant acid phosphatase [TRAP] staining) were assessed using OsteoMeasure Advanced Bone Histomorphometry Video System (Osteometrics, Inc., Decatur, GA, USA) and standard histomorphometric methods.28
Tumor burden was assessed on sections of tibias that had been stained with hematoxylin and eosin, where the distinct morphology of the myeloma cells distinguishes them from normal marrow. The proportion of bone marrow occupied by the myeloma cells was assessed using OsteoMeasure and expressed as a percentage of the whole bone section area as described.22 Tumor burden was also assessed in bone marrow flushes of the left femora by flow cytometry using an anti‐human HLA‐ABC‐APC antibody and an isotype‐matched control (R&D Systems, Minneapolis, MN, USA) as described.29, 30

[6] = Adverse side effects observed across all in vivo studies; parameters: species or system rats and mice
Excerpt: Sprague Dawley rats, C57BL/6J and NOD/SCID‐γ (NSG, NOD.Cg‐Prkdcscid Il2rgtm1Wjl/SzJ) mice were purchased from Charles River Laboratories (Wilmington, MA, USA/Margate, UK). All animals were housed in cages under standard conditions (12‐hour light/dark cycle). NSG mice were housed in specific‐pathogen‐free conditions. All animals were healthy and pathogen‐free at the start of each study and once each study had commenced they were monitored daily for any unexpected adverse effects. […] Similar calculations were used to determine group numbers in non–tumor‐bearing animals based on previously observed changes in bone (BMD or trabecular bone fraction [BV/TV]).

[7] = test system: experimentally induced inflammatory colitis; parameters: method as in earlier work; conditions: cited from earlier work

Structure (SMILES) | HAP affinity (mean retention time/min) [1] [min] | Dose required to increase BMD by 20% greater than control [2] [μg P/kg] | Percentage of the dose excreted in urine over 24 hours [3] | Skeletal retention (% of administered dose) [3] | Osteoclast number (cortico-endosteal surface) [5] | Cortical bone lesions by μCT [5] | Osteolytic disease by μCT [5] | Tumor burden by flow cytometric analysis of femoral bone marrow flushes ([5]; vs tumor control (JJN3)) | BV/TV by μCT [5] | further results
O=P(O)(O)C(O)(Cn1ccnc1)P(=O)(O)O [Zoledronate, zoledronate] | 12.53 ± 0.1 | 0.08 | 27.95% ± 3.18 | 72.05 ± 3.18 % of administered dose | significant reduction in osteoclast number | significantly reduced | prevented the osteolytic disease | no significant reduction in tumor burden | significantly higher | Number of osteoblasts on the trabecular bone surface ([4]; ZOL 28.4 µg P/kg s.c. 2×/week, 3 weeks, vs vehicle): significant reduction in osteoblasts; Tumor burden by histological analysis of tibias ([5]; 28.4 µg P/kg ZOL s.c. 2×/week, vs tumor control (JJN3)): significant reduction in tumor burden
O=P(O)(O)C(O)(Cc1cnc2ccccn12)P(=O)(O)O [Minodronate, minodronate] | 10.33 ± 0.18 | 0.11 | 44.80% ± 1.6 | 55.2 ± 1.6 % of administered dose |  |  |  |  |  | 
O=P(O)(O)C(O)(Cc1cccnc1)P(=O)(O)O [Risedronate, risedronate] | 9.97 ± 0.18 | 0.45 | 34.91% ± 9.3 | 65.1 ± 9.31 % of administered dose |  |  |  |  |  | % excretion (urine, 24 h) ([3]; RIS co-dosed with MIN or OX14): 32.5 ± 0.1%; % excretion (urine, 24 h) ([3]; RIS co-dosed with equal or greater amounts of ALN or ZOL): 43.2 ± 2.6%; % excretion (urine, 24 h) ([3]; RIS dose 0.1 mg): 38.1 ± 5.6%; % excretion (urine, 24 h) ([3]; RIS dose 0.5 mg): 45.1 ± 1.0%; % excretion (urine, 24 h) ([3]; RIS dose 1 mg): 43.0 ± 1.8%
NCCCC(O)(P(=O)(O)O)P(=O)(O)O [Alendronate, alendronate] |  | 1.52 |  |  |  |  |  |  |  | 
O=P(O)(O)C(F)(Cc1cnc2ccccn12)P(=O)(O)O [OX14, 1‐fluoro‐2‐(imidazo‐[1,2‐α]pyridin‐3‐yl)‐ethyl‐bisphosphonate] | 6.17 ± 0.08 | 0.30 | 52.85% ± 3.82 | 47.15 ± 3.82 % of administered dose | significant reduction in osteoclast number | significantly reduced | prevented the osteolytic disease | no significant reduction in tumor burden | significantly higher | BV/TV by μCT ([4]; OX14 23 µg P/kg s.c. 2×/week, 3 weeks, vs vehicle): increased BV/TV; BV/TV by μCT ([4]; OX14 2.3 and 0.23 µg P/kg s.c. 2×/week, 3 weeks, vs vehicle): not significantly different from the vehicle control group; Osteoclast perimeter on the trabecular bone perimeter ([4]; OX14 2.3 and 0.23 µg P/kg, vs vehicle control): neither of the lower doses of OX14 produced significant reductions; Tumor burden (overall statement) ([5]; OX14 23 µg P/kg s.c. 2×/week): not to reduce tumor burden; Adverse side effects (loss or gain of weight, liver toxicity, or death) [6]: no adverse side effects; Prevention of experimentally induced inflammatory colitis [7]: effectiveness in preventing experimentally induced inflammatory colitis
